Test results reported in patent publication US20080026996A1, “Selective Vpac2 Receptor Reptide Agonists” (ELI LILLY AND COMPANY, priority 2004, published 2008).
Where a SMILES comes first, the peptide text is derived from it. Where no end group is shown, it is not given here. [ ]: non-standard residue; d: D form. The star is where a group is joined. Cit = NC(=O)NCCC[C@H](N)C(=O)O; Hexanoyl = CCCCCC(=O)*; Aib = CC(C)(N)C(=O)O

Assays:
[1] = Rat serum stability studies (remaining active peptide by DiscoveRx cAMP on CHO-VPAC2 cells); format: in vitro ADME
Outline: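 EC50 from a DiscoveRx cAMP read-out on CHO-VPAC2 cells indexes how much peptide stays active after 18 h in rat serum at 37° C without aprotinin, against an aprotinin-protected 4° C aliquot.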

[2] = target: T1, human VPAC1 (Homo sapiens, UniProt P32241); test: Filter binding assay, membranes of cells transiently transfected with human VPAC1, 125I-labeled VIP tracer (Table 2); design: expressed in transfected cells; details: read-out: Human VPAC1 Receptor Binding
T1 sequence (P32241 31-457): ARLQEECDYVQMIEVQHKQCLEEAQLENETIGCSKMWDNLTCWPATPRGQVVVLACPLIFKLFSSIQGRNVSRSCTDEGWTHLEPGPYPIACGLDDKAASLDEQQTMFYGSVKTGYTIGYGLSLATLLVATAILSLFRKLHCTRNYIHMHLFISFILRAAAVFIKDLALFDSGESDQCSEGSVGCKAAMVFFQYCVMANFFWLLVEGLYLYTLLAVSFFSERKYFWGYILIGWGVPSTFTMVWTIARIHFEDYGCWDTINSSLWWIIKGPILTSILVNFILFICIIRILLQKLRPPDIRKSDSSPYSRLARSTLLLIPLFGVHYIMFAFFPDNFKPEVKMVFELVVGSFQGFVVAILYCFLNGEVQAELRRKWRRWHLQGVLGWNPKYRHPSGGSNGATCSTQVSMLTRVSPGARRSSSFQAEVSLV
Outline: (§1)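 Radioligand displacement was measured with 2.5 μg membrane protein per well and roughly 40000 cpm of iodinated tracer. After a 1-hour incubation, bound and free label were separated on BSA-blocked glass-fibre filters and quantified by scintillation.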

[3] = target: T2, human VPAC2 (Homo sapiens, UniProt P41587); test: Filter binding assay, membranes of stable VPAC2 cell line, 125I-labeled VIP tracer (Table 2); details: read-out: Human VPAC2 Receptor Binding
T2 construct: expressed in transfected cells
T2 sequence (P41587 24-438): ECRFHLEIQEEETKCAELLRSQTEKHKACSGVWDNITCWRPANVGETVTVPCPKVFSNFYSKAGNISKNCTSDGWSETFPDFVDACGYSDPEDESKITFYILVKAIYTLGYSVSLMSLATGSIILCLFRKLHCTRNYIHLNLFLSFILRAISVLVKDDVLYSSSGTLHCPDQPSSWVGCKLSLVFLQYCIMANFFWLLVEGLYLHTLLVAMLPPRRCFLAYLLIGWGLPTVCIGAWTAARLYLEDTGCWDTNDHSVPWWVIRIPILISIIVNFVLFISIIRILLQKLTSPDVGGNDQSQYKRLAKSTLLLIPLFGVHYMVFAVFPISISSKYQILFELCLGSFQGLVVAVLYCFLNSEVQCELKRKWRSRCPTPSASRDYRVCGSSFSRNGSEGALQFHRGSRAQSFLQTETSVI
Outline: as §1

[4] = target: T3, human PAC1 (Homo sapiens, UniProt P41586); test: Filter binding assay, membranes of cells transiently transfected with human PAC1, 125I-labeled PACAP-27 tracer (Table 2); design: expressed in transfected cells; details: read-out: Human PAC1 Receptor Binding
T3 sequence (P41586 21-468): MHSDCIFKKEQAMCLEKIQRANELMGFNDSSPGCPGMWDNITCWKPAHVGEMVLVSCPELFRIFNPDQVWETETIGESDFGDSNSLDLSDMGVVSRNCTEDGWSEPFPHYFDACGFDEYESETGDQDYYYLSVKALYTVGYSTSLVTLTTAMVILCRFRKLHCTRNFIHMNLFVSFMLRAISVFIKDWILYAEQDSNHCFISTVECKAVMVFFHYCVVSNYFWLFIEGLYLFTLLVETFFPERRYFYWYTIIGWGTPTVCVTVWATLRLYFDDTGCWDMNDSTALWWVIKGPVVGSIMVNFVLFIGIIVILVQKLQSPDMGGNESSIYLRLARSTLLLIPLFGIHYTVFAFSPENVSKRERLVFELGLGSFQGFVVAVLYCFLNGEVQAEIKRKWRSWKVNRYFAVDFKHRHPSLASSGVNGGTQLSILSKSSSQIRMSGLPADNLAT
Outline: as §1

[5] = target: T2, human VPAC2; test: Alpha screen cAMP in vitro potency, human VPAC2 receptor; format: cell-based; details: cAMP generation; single result from two analyses performed in a single run; read-out: Human VPAC2 Receptor: Alpha Screen EC50
Outline: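 Under reduced light, acceptor beads accompany the stimuli during a 60-minute incubation of cells in stimulation buffer (50,000 per well point). Donor beads go in with lysis buffer for a further 60–120 minutes, and the resulting AlphaScreen signal indicates cAMP levels.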

CCCCCC(=O)N[C@@H](Cc1c[nH]cn1)C(=O)N[C@@H](CO)C(=O)N[C@@H](CC(=O)O)C(=O)N[C@@H](C)C(=O)N[C@H](C(=O)N[C@@H](Cc1ccccc1)C(=O)N[C@H](C(=O)N[C@@H](CC(=O)O)C(=O)N[C@@H](CC(N)=O)C(=O)N[C@@H](Cc1ccc(O)cc1)C(=O)N[C@H](C(=O)N[C@@H](CCCNC(=N)N)C(=O)N[C@@H](CC(C)C)C(=O)NC(C)(C)C(=O)N[C@@H](CCCCN)C(=O)N[C@@H](CCC(N)=O)C(=O)N[C@H](C(=O)N[C@@H](C)C(=O)N[C@@H](C)C(=O)NC(C)(C)C(=O)N[C@@H](CCCCN)C(=O)N[C@@H](Cc1ccc(O)cc1)C(=O)N[C@@H](CC(C)C)C(=O)N[C@@H](CCC(N)=O)C(=O)N[C@@H](CO)C(=O)N[C@H](C(=O)N[C@@H](CCCCN)C(=O)N[C@@H](CCC(N)=O)C(=O)N[C@@H](CCCCN)C(=O)NCC(=O)NCC(=O)N1CCC[C@H]1C(=O)N[C@@H](CO)C(=O)N[C@@H](CO)C(=O)NCC(=O)N[C@@H](C)C(=O)N1CCC[C@H]1C(=O)N1CCC[C@H]1C(=O)N1CCC[C@H]1C(=O)N[C@@H](CO)C(=O)O)[C@@H](C)CC)C(C)C)[C@@H](C)O)[C@@H](C)O)C(C)C [Agonist P293] (Hexanoyl-HSDAVFTDNYTRL[Aib]KQVAA[Aib]KYLQSIKQKGGPSSGAPPPS-OH; C-terminus assumed)
Rat Serum Stability (estimated purity in % after 18 hours) [1]: 32.70%
IC50 [2]: > 3000 nM
IC50 [3]: 16.7 nM
IC50 [4]: > 25000 nM

Hexanoyl-HSDAVFTDNYTRLA[Aib]QVAA[Aib]KYLQSIKNKRYGGPSSGAPPPS [Agonist P301]
Rat Serum Stability (estimated purity in % after 18 hours) [1]: 6.86%
IC50 [2]: > 3000 nM
IC50 [3]: 7.27 nM
IC50 [4]: > 25000 nM

Hexanoyl-HSDAVFTYNYTRLRKQVAAKKYLQSIKNKRYGGPSSGAPPPS [Agonist P163]
Rat Serum Stability (estimated purity in % after 18 hours) [1]: <1.25%
IC50 [2]: 35.7 nM
IC50 [3]: 2 nM
IC50 [4]: 238 nM

Hexanoyl-HSDAVFTDNYTRL[Aib]KQVAA[Aib]KYLQSIKNKRYGGPSSGAPPPS [Agonist P242]
Rat Serum Stability (Estimated purity in % after 72 hours) [1]: 3.8%
Rat Serum Stability (estimated purity in % after 18 hours) [1]: 40.28%
IC50 [2]: > 3000 nM
IC50 [3]: 6.78 nM
IC50 [4]: > 25000 nM

CCCCCC(=O)N[C@@H](Cc1c[nH]cn1)C(=O)N[C@@H](CO)C(=O)N[C@@H](CC(=O)O)C(=O)N[C@@H](C)C(=O)N[C@H](C(=O)N[C@@H](Cc1ccccc1)C(=O)N[C@H](C(=O)N[C@@H](CC(=O)O)C(=O)N[C@@H](CC(N)=O)C(=O)N[C@@H](Cc1ccc(O)cc1)C(=O)N[C@H](C(=O)N[C@@H](CCCNC(=N)N)C(=O)N[C@@H](CC(C)C)C(=O)N[C@@H](CCCNC(=N)N)C(=O)N[C@@H](CCCCN)C(=O)N[C@@H](CCC(N)=O)C(=O)N[C@H](C(=O)N[C@@H](C)C(=O)N[C@@H](C)C(=O)N[C@@H](CCCCN)C(=O)N[C@@H](CCCNC(=N)N)C(=O)N[C@@H](Cc1ccc(O)cc1)C(=O)N[C@@H](CC(C)C)C(=O)N[C@@H](CCC(N)=O)C(=O)N[C@@H](CO)C(=O)N[C@H](C(=O)N[C@@H](CCCNC(=N)N)C(=O)N[C@@H](CC(N)=O)C(=O)NCC(=O)NCC(=O)N1CCC[C@H]1C(=O)N[C@@H](CO)C(=O)N[C@@H](CO)C(=O)NCC(=O)N[C@@H](C)C(=O)N1CCC[C@H]1C(=O)N1CCC[C@H]1C(=O)N1CCC[C@H]1C(=O)N[C@@H](CO)C(=O)O)[C@@H](C)CC)C(C)C)[C@@H](C)O)[C@@H](C)O)C(C)C [Agonist P213] (Hexanoyl-HSDAVFTDNYTRLRKQVAAKRYLQSIRNGGPSSGAPPPS-OH; C-terminus assumed)
Rat Serum Stability (estimated purity in % after 18 hours) [1]: 0.04%
IC50 [2]: 32.2 nM
IC50 [3]: 0.27 nM
EC50 [5]: 0.24 nM

Hexanoyl-HSDAVFTDNYTRL[Aib]KQVAAAKYLQSIKNKRYGGPSSGAPPPS [Agonist P260]
Rat Serum Stability (estimated purity in % after 18 hours) [1]: 28.57%
IC50 [2]: 3320 nM
IC50 [3]: 4.79 nM
IC50 [4]: > 3000 nM

Hexanoyl-HSDAVFTDNYTRLR[Aib]QAAA[Aib]KYLQSIKNKRYGGPSSGAPPPS [Agonist P324]
Rat Serum Stability (estimated purity in % after 18 hours) [1]: 13.64%
IC50 [2]: > 3000 nM
IC50 [3]: 0.43 nM
EC50 [5]: 0.23 nM

Hexanoyl-HSDA[Aib]FTDNYTRLRKQVAAKKYLQSIKNKRYGGPSSGAPPPS [Agonist P212]
Rat Serum Stability (estimated purity in % after 18 hours) [1]: 0.21%
IC50 [2]: 198 nM
IC50 [3]: 0.19 nM
EC50 [5]: 0.12 nM

Hexanoyl-HSDAVFTDNYTRL[Cit][Aib]QVAA[Aib]KYLQSIKNKRYGGPSSGAPPPS [Agonist P320]
Rat Serum Stability (estimated purity in % after 18 hours) [1]: 28.59%
IC50 [2]: > 3000 nM
IC50 [3]: 1.2 nM
EC50 [5]: 0.49 nM

Hexanoyl-HSDAVFTDNYTRL[Aib]KQVAALKYLQSIKNKRYGGPSSGAPPPS [Agonist P259]
Rat Serum Stability (estimated purity in % after 18 hours) [1]: 17.65%
IC50 [2]: 3460 nM
IC50 [3]: 13.2 nM
IC50 [4]: > 3000 nM

Hexanoyl-HSDAVFTDNYTRL[Aib]KQLAAK[Aib]YLQSIKNKRYGGPSSGAPPPS [Agonist P241]
Rat Serum Stability (estimated purity in % after 18 hours) [1]: 62.55%
IC50 [2]: > 3000 nM
IC50 [3]: 18.1 nM
IC50 [4]: > 25000 nM

Hexanoyl-HSD[dA]VFTDNYTRLRKQVAAKKYLQSIKNKRYGGPSSGAPPPS [Agonist P207]
Rat Serum Stability (estimated purity in % after 18 hours) [1]: <0.29%
IC50 [2]: 282 nM
IC50 [3]: 0.81 nM
EC50 [5]: 0.86 nM

CCCCCC(=O)N[C@@H](Cc1c[nH]cn1)C(=O)N[C@@H](CO)C(=O)N[C@@H](CC(=O)O)C(=O)N[C@@H](C)C(=O)N[C@H](C(=O)N[C@@H](Cc1ccccc1)C(=O)N[C@H](C(=O)N[C@@H](CC(=O)O)C(=O)N[C@@H](CC(N)=O)C(=O)N[C@@H](Cc1ccc(O)cc1)C(=O)N[C@H](C(=O)N[C@@H](CCCNC(=N)N)C(=O)N[C@@H](CC(C)C)C(=O)N[C@@H](CCCNC(=N)N)C(=O)N[C@@H](CCCCN)C(=O)N[C@@H](CCC(N)=O)C(=O)N[C@H](C(=O)N[C@@H](C)C(=O)N[C@@H](C)C(=O)N[C@@H](CCCNC(=N)N)C(=O)N[C@@H](CCCNC(=N)N)C(=O)N[C@@H](Cc1ccc(O)cc1)C(=O)N[C@@H](CC(C)C)C(=O)N[C@@H](CCC(N)=O)C(=O)N[C@@H](CO)C(=O)N[C@H](C(=O)N[C@@H](CCCNC(=N)N)C(=O)N[C@@H](CC(N)=O)C(=O)NCC(=O)NCC(=O)N1CCC[C@H]1C(=O)N[C@@H](CO)C(=O)N[C@@H](CO)C(=O)NCC(=O)N[C@@H](C)C(=O)N1CCC[C@H]1C(=O)N1CCC[C@H]1C(=O)N1CCC[C@H]1C(=O)N[C@@H](CO)C(=O)O)[C@@H](C)CC)C(C)C)[C@@H](C)O)[C@@H](C)O)C(C)C [Agonist P214] (Hexanoyl-HSDAVFTDNYTRLRKQVAARRYLQSIRNGGPSSGAPPPS-OH; C-terminus assumed)
Rat Serum Stability (estimated purity in % after 18 hours) [1]: 0.07%
IC50 [2]: 14.5 nM
IC50 [3]: 0.19 nM
EC50 [5]: 0.16 nM

Hexanoyl-HSDAVFTDNYTRLRKQVAAKKILQSIKNKRYGGPSSGAPPPS [Agonist P133]
Rat Serum Stability (estimated purity in % after 18 hours) [1]: <2.00%
IC50 [2]: 470 nM
IC50 [3]: 5.3 nM
IC50 [4]: 1940 nM

Hexanoyl-HSDAVFTENYTRLRKQVAAKKYLQSIKNKRYGGPSSGAPPPS [Agonist P159]
Rat Serum Stability (estimated purity in % after 18 hours) [1]: 0.15%
IC50 [2]: 131 nM
IC50 [3]: 0.17 nM
EC50 [5]: 0.17 nM

Hexanoyl-HSDAVFTDNYTRLRLQVAAKKYLQSIKNKRYGGPSSGAPPPS [Agonist P179]
Rat Serum Stability (estimated purity in % after 18 hours) [1]: 1.66%
IC50 [2]: 390 nM
IC50 [3]: 0.42 nM
EC50 [5]: 0.24 nM
